Assay results taken from publication PMC7646182, “Design and biological evaluation of novel BF-30 analogs for the treatment of malignant melanoma” (Journal of Cancer, 2020).

System: B16F10 melanoma
Experiment: Chronic study in B16F10-bearing mouse model
Assay type: in vivo
Settings: B16F10-bearing C57BL/6J mice, 4-week treatment; LBF-14 0.3 and 0.9 mg/kg, cisplatinum 0.1 mg/kg, n=10
Procedure: The B16F10 cells (0.1 ml, 5×10^6 cells, cell viability >99%) were subcutaneously transplanted into the C57BL/6J mice. In the next 15 days, the length (L), width (W) and height (H) of tumours were measured with a caliper to calculate tumour volume using the formula: V = π/6×L×W×H. When the tumours grew to 150-350 mm^3, the melanoma model mice were randomly divided into five groups (n=10) and received saline, native BF-30 at 0.9 mg/kg, LBF-14 at […] doses of 0.3 and 0.9 mg/kg, and cisplatinum at the dose of 0.1 mg/kg, respectively. All the samples including the saline and different doses of LBF-14 were administered twice weekly by intra-tumour injection (50 μl) for 4 successive weeks. All melanoma model mice were weighted and sacrificed at the end of the experimental period (day 29). The anti-tumour efficacies of LBF-14 at both two doses were presented as inhibitory rates (%) which were calculated as [(A-B)/A]×100% (average tumour weight of (A) saline treated group and (B) LBF-14 treated groups, respectively). In addition, the tumours from the B16F10-bearing mice were separated and then performed H&E staining according to the standard operating procedures.

N.N.[Cl][Pt][Cl] [cisplatinum]
effect on body weight of model mice: significant decrease in body weight
